Test results published in patent US10870647B2, “Imidazopyridine derivative, method for preparing same, and pharmaceutical composition containing same as active ingredient for preventing or treating cancer” (DAEGU-GYEONGBUK MEDICAL INNOVATION FOUNDATION, priority 2016, dated 2020).

Experiments:
Experiment in all cases: Kinase selectivity, scanMAX Kinase assay panel (DiscoverX), % control at 1 uM
Assay type in all cases: binding
[1] = molecular target: T1, scanMAX Kinase assay panel (Homo sapiens, UniProt Q15139); settings: PRKD1; 1 uM; read-out: Percent Control (%)
T1 construct: purchased DiscoverX
T1 sequence (Q15139 1-912): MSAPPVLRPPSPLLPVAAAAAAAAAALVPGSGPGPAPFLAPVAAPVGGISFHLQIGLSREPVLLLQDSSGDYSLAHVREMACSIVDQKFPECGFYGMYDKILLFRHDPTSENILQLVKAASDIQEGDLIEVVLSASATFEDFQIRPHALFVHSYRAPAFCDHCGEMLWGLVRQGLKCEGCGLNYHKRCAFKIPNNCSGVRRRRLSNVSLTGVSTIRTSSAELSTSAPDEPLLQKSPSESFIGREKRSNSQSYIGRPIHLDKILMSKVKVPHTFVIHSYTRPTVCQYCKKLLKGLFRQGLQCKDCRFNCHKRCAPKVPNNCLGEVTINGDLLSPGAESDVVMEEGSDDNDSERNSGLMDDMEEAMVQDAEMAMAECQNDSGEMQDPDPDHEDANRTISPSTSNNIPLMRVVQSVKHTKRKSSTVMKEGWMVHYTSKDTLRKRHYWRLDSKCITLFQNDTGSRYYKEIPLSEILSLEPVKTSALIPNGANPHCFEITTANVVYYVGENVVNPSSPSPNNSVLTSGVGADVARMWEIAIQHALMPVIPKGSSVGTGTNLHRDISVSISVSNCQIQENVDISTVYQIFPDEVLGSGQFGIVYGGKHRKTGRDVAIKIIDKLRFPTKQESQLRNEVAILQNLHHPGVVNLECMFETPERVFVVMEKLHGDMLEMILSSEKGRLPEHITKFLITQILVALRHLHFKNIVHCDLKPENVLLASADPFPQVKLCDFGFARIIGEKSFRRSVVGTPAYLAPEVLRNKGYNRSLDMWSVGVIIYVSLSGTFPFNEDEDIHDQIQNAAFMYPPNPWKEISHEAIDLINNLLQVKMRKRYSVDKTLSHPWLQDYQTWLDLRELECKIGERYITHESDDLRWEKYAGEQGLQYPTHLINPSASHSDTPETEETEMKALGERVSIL
Summary of the method: (§1)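 Each kinase was first exposed to the test compound at 1 uM in DMSO. Signal was then normalised to positive and negative controls to give % control. Finally, any enzyme showing <35% control was judged inhibited.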

[2] = molecular target: T2, scanMAX Kinase assay panel (Homo sapiens, UniProt O75747); settings: PIK3C2G; 1 uM; read-out: Percent Control (%)
T2 construct: purchased DiscoverX
T2 sequence (O75747 1-1486): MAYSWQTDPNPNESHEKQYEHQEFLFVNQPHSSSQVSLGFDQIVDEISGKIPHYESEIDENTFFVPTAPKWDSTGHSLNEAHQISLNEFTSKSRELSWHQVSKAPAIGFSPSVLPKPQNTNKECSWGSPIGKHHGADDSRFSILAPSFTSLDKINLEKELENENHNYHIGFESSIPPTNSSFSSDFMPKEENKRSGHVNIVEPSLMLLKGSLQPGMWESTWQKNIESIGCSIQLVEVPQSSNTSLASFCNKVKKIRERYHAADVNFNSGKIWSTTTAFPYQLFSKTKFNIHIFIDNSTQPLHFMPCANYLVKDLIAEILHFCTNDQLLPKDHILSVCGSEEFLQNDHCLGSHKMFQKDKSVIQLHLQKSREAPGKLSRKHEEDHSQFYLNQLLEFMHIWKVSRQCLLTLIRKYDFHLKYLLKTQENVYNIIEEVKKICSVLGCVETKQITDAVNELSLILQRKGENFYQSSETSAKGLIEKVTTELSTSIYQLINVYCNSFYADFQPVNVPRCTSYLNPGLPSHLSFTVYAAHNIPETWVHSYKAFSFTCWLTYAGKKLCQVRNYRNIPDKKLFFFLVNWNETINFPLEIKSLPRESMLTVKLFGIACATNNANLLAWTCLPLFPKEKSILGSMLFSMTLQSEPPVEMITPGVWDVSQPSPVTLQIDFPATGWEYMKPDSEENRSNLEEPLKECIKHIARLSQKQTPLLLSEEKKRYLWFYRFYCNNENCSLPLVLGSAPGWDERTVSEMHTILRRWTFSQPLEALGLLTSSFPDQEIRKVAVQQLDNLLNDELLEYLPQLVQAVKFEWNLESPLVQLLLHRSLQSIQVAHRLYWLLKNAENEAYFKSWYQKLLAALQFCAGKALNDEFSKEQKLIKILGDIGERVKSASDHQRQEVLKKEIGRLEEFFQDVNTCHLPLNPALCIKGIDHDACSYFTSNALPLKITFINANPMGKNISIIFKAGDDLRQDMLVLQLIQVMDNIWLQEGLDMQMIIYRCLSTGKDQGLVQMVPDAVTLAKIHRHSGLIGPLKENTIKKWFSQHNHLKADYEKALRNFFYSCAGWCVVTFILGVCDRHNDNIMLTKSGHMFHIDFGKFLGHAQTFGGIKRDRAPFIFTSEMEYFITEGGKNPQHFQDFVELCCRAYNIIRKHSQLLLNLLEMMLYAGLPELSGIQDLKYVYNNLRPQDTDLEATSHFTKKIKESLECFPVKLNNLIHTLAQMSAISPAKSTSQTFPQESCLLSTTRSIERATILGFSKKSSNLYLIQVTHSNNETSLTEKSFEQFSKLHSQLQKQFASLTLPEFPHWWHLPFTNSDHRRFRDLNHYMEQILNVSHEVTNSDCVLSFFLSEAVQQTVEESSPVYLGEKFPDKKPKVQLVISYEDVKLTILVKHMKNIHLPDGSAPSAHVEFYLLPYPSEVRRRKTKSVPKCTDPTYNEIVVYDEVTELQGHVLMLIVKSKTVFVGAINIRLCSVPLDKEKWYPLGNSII
Summary of the method: as §1

[3] = molecular target: T3, scanMAX Kinase assay panel (Homo sapiens, UniProt P78368); settings: CSNK1G2; 1 uM; read-out: Percent Control (%)
T3 construct: purchased DiscoverX
Summary of the method: as §1

T3 sequence (P78368 whole entry): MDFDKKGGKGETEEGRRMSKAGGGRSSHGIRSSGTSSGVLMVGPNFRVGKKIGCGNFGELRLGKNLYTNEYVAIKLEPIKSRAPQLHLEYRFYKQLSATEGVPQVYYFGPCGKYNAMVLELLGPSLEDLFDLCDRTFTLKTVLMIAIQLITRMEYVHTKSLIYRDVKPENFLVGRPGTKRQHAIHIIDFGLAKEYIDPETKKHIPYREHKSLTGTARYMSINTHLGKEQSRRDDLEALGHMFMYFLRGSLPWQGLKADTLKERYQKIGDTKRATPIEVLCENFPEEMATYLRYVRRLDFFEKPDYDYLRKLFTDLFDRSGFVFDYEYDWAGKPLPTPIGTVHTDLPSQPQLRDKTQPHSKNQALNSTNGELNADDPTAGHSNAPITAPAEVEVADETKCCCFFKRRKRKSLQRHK

SMILES | remaining binding at 1 µM [1] [%] | remaining binding at 1 µM [2] [%] | remaining binding at 1 µM [3] [%]
Cc1ccc(NC(=O)C2(C(=O)Nc3ccc(F)cc3)CC2)cc1C#Cc1cnc2c(Nc3cnn(C(C)C)c3)cccn12 [Example 78] | 100 | 100 | 100
Cc1cn(-c2cc(NC(=O)c3ccc(C)c(C#Cc4cnc5c(Nc6cnn(C)c6)cccn45)c3)cc(C(F)(F)F)c2)cn1 [Example 12, 4-methyl-N-(3-(4-methyl-1H-imidazol-1-yl)-5-(trifluoromethyl)phenyl)-3-((8-((1-methyl-1H-pyrazol-4-yl)amino)imidazo[1,2-a]pyridin-3-yl)ethynyl)benzamide] | 94 | 100 | 94
Cc1ccc(C(=O)Nc2ccc(CN3CCN(C)CC3)c(C(F)(F)F)c2)cc1C#Cc1cnc2c(Nc3cnn(C)c3)cccn12 [Example 1, 4-methyl-3-((8-((1-methyl-1H-pyrazol-4-yl)amino)imidazo[1,2-a]pyridin-3-yl)ethynyl)-N-(4-((4-methylpiperazin-1-yl)methyl)-3-(trifluoromethyl)phenyl)benzamide] | 54 | 75 | 91
